According to the NIST ThermoML archive (doi:10.1016/j.fluid.2016.04.009):
Numbers after ± are expanded uncertainties.

Legend:
[1] = molar heat capacity at constant pressure; settings: 298.15 K; 101.33 kPa; Liquid; Drop calorimetry
[2] = for viscosity / mass density: 101.33 kPa; for viscosity / mass density / surface tension liquid-gas: Liquid; for viscosity: Concentric cylinders viscometry; for mass density: Vibrating tube method; for surface tension liquid-gas: Pendant drop shape; for Normal melting temperature: Crystal, DTA
[3] = refractive index (Na D-line) (dimensionless); settings: 101.33 kPa, Liquid, Standard Abbe refractometry
[4] = Molar enthalpy of transition or fusion; settings: Crystal; DSC

Cc1ccc[n+](CC(C)C)c1.O=S(=O)([N-]S(=O)(=O)C(F)(F)F)C(F)(F)F
Settings | molar heat capacity at constant pressure [J/K/mol]
[1] | 578.87 ± 13

Settings | mass density [kg/m3] | refractive index | surface tension liquid-gas [mN/m] | viscosity [mPa·s]
[2], 293.15 K | 1417.2 ± 1.8 | – | – | 135.42 ± 2.7
[2], 298.15 K | 1412.6 ± 1.8 | – | – | 100.1 ± 1.8
[2], 298.2 K | – | – | 33.45 ± 0.75 | –
[2], 303.15 K | 1408 ± 1.8 | – | – | 76.34 ± 1.2
[2], 308.15 K | 1403.4 ± 1.8 | – | – | 59.56 ± 0.85
[2], 308.2 K | – | – | 32.99 ± 0.75 | –
[2], 313.15 K | 1398.8 ± 1.8 | – | – | 47.48 ± 0.66
[2], 318.15 K | 1394.2 ± 1.8 | – | – | 38.42 ± 0.52
[2], 318.2 K | – | – | 32.54 ± 0.75 | –
[2], 323.15 K | 1389.7 ± 1.7 | – | – | 31.63 ± 0.41
[2], 328.15 K | 1385.1 ± 1.7 | – | – | 26.4 ± 0.3
[2], 328.2 K | – | – | 32.08 ± 0.74 | –
[2], 333.15 K | 1380.6 ± 1.7 | – | – | 22.36 ± 0.28
[2], 338.15 K | 1376.1 ± 1.7 | – | – | 19.08 ± 0.24
[2], 338.2 K | – | – | 31.63 ± 0.74 | –
[2], 343.15 K | 1371.6 ± 1.7 | – | – | 16.47 ± 0.2
[2], 343.2 K | – | – | 31.4 ± 0.74 | –
[2], 348.15 K | 1367.2 ± 1.7 | – | – | 14.35 ± 0.17
[2], 353.15 K | 1362.8 ± 1.7 | – | – | 12.63 ± 0.15
[2], 358.15 K | 1358.4 ± 1.7 | – | – | 11.14 ± 0.13
[2], 363.15 K | 1354.1 ± 1.7 | – | – | 9.93 ± 0.12
[3], 288.15 K | – | 1.44902 ± 0.00051 | – | –
[3], 293.15 K | – | 1.44743 ± 0.00051 | – | –
[3], 298.15 K | – | 1.44585 ± 0.00051 | – | –
[3], 303.15 K | – | 1.44426 ± 0.00051 | – | –
[3], 308.15 K | – | 1.44268 ± 0.00051 | – | –
[3], 313.15 K | – | 1.44109 ± 0.00051 | – | –
[3], 318.15 K | – | 1.43951 ± 0.00051 | – | –

CCCC[n+]1cccc(C)c1.O=S(=O)([N-]S(=O)(=O)C(F)(F)F)C(F)(F)F
Settings | molar heat capacity at constant pressure [J/K/mol]
[1] | 578.01 ± 13

Settings | mass density, [2] [kg/m3] | refractive index, [3] | viscosity, [2] [mPa·s]
288.15 K | – | 1.44894 ± 0.00037 | –
293.15 K | 1418.7 ± 0.7 | 1.44737 ± 0.00037 | 84.2 ± 1
298.15 K | 1414.1 ± 0.7 | 1.4458 ± 0.00037 | 65.74 ± 0.76
303.15 K | 1409.4 ± 0.7 | 1.44423 ± 0.00037 | 52.39 ± 0.55
308.15 K | 1404.8 ± 0.7 | 1.44266 ± 0.00037 | 42.46 ± 0.44
313.15 K | 1400.2 ± 0.7 | 1.44109 ± 0.00037 | 34.93 ± 0.34
318.15 K | 1395.6 ± 0.7 | 1.43952 ± 0.00037 | 29.13 ± 0.28
323.15 K | 1391.1 ± 0.7 | – | 24.59 ± 0.23
328.15 K | 1386.6 ± 0.7 | – | 20.97 ± 0.19
333.15 K | 1382 ± 0.7 | – | 18.1 ± 0.16
338.15 K | 1377.6 ± 0.7 | – | 15.71 ± 0.13
343.15 K | 1373.1 ± 0.6 | – | 13.77 ± 0.11
348.15 K | 1368.7 ± 0.6 | – | 12.15 ± 0.1
353.15 K | 1364.3 ± 0.6 | – | 10.82 ± 0.09
358.15 K | 1359.9 ± 0.6 | – | 9.66 ± 0.08
363.15 K | 1355.6 ± 0.6 | – | 8.69 ± 0.07

CC(C)C[N+]1(C)CCCCC1.O=S(=O)([N-]S(=O)(=O)C(F)(F)F)C(F)(F)F
Settings | mass density [kg/m3] | refractive index | surface tension liquid-gas [mN/m] | viscosity [mPa·s]
[2], 303.15 K | 1392.9 ± 1.8 | – | – | 125.12 ± 2.3
[2], 308.15 K | 1388.6 ± 1.7 | – | – | 96.4 ± 1.6
[2], 308.2 K | – | – | 33.9 ± 0.76 | –
[2], 313.15 K | 1384.4 ± 1.7 | – | – | 76.03 ± 1.1
[2], 318.15 K | 1380.1 ± 1.7 | – | – | 60.67 ± 0.83
[2], 318.2 K | – | – | 33.45 ± 0.75 | –
[2], 323.15 K | 1375.9 ± 1.7 | – | – | 49.34 ± 0.66
[2], 328.15 K | 1371.7 ± 1.7 | – | – | 40.71 ± 0.53
[2], 328.2 K | – | – | 33.01 ± 0.75 | –
[2], 333.15 K | 1367.5 ± 1.7 | – | – | 34.11 ± 0.44
[2], 338.15 K | 1363.3 ± 1.7 | – | – | 28.76 ± 0.36
[2], 338.2 K | – | – | 32.56 ± 0.75 | –
[2], 343.15 K | 1359.1 ± 1.7 | – | – | 24.57 ± 0.3
[2], 343.2 K | – | – | 32.34 ± 0.74 | –
[2], 348.15 K | 1355 ± 1.7 | – | – | 21.18 ± 0.26
[2], 353.15 K | 1350.8 ± 1.6 | – | – | 18.47 ± 0.22
[2], 358.15 K | 1346.7 ± 1.6 | – | – | 16.14 ± 0.19
[2], 363.15 K | 1342.7 ± 1.6 | – | – | 14.25 ± 0.17
[3], 288.15 K | – | 1.43387 ± 0.00051 | – | –
[3], 293.15 K | – | 1.43243 ± 0.00051 | – | –
[3], 298.15 K | – | 1.43099 ± 0.00051 | – | –
[3], 303.15 K | – | 1.42955 ± 0.00051 | – | –
[3], 308.15 K | – | 1.42812 ± 0.00051 | – | –
[3], 313.15 K | – | 1.42668 ± 0.00051 | – | –
[3], 318.15 K | – | 1.42524 ± 0.00051 | – | –
[3], 323.15 K | – | 1.42381 ± 0.00051 | – | –
[3], 328.15 K | – | 1.42237 ± 0.00051 | – | –
[3], 333.15 K | – | 1.42093 ± 0.00051 | – | –

Settings | Molar enthalpy of transition or fusion [kcal/mol] | Normal melting temperature [°C]
[2] | – | 14.8 ± 1.1
[4] | 0.574 ± 0.335 | –

CCCC[N+]1(C)CCCC1.O=S(=O)([N-]S(=O)(=O)C(F)(F)F)C(F)(F)F
Settings | Molar enthalpy of transition or fusion [kcal/mol] | Normal melting temperature [°C] | molar heat capacity at constant pressure [J/K/mol]
[1] | – | – | 584.19 ± 14
[2] | – | -13.4 ± 1.1 | –
[4] | 4.83 ± 0.359 | – | –

Settings | mass density, [2] [kg/m3] | refractive index, [3] | viscosity, [2] [mPa·s]
288.15 K | – | 1.42612 ± 0.00037 | –
293.15 K | 1406.1 ± 0.7 | 1.42466 ± 0.00037 | 101.71 ± 1.4
298.15 K | 1401.6 ± 0.7 | 1.42319 ± 0.00037 | 79.57 ± 1
303.15 K | 1397.2 ± 0.7 | 1.42173 ± 0.00037 | 63.64 ± 0.68
308.15 K | 1392.7 ± 0.7 | 1.42027 ± 0.00037 | 51.71 ± 0.51
313.15 K | 1388.3 ± 0.7 | 1.4188 ± 0.00037 | 42.67 ± 0.42
318.15 K | 1383.8 ± 0.7 | 1.41734 ± 0.00037 | 35.6 ± 0.3
323.15 K | 1379.4 ± 0.7 | – | 30.07 ± 0.27
328.15 K | 1375.1 ± 0.6 | – | 25.66 ± 0.23
333.15 K | 1370.7 ± 0.6 | – | 22.16 ± 0.19
338.15 K | 1366.4 ± 0.6 | – | 19.21 ± 0.16
343.15 K | 1362.1 ± 0.6 | – | 16.83 ± 0.14
348.15 K | 1357.8 ± 0.6 | – | 14.84 ± 0.12
353.15 K | 1353.6 ± 0.6 | – | 13.21 ± 0.11
358.15 K | 1349.3 ± 0.6 | – | 11.77 ± 0.09
363.15 K | 1345.1 ± 0.6 | – | 10.57 ± 0.08

CCCCCC[n+]1ccn(C)c1.O=S(=O)([N-]S(=O)(=O)C(F)(F)F)C(F)(F)F
Settings | Normal melting temperature [°C]
[2] | -10.5 ± 1.1
